# PubChem BioAssay AID624258 (Broad Institute, 2012)
# Activity calls are given as the source filed them. The rule behind the calls is not given here.
# Tested on: S. cerevisiae SKN7-toxicity growth rescue, plate reader
# Assay: SKN7 mediated toxicity in Saccharomyces cerevisiae, growth rescue counterscreen, dose confirmation (AID 624258);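 note: growth read after three days of incubation at 30 °C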;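 for growth rescue activity: 0% = median of neutral control wells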
# Conditions: not given
row,Compound,AC40 [µM]
1,O=C(N/N=C/c1c(O)n(Cc2ccccc2)c(=O)c2ccccc12)c1cccnc1,1.01
2,c1ccc(Cn2cc(-c3cccnc3)cn2)cc1,1.46
3,O/N=C/c1cc(Br)ccc1OCc1cccc(F)c1,5.83
4,Cc1oc2c(c1C(=O)c1ccc(Cl)cc1)C(=O)C(=O)c1ccccc1-2,1.27
5,O=C(N[C@@H](Cc1ccccc1)C(=O)CCl)OCc1ccccc1,1.14
6,Cc1ccc(CCNc2ncnc(Cl)c2N)cc1,3.87
7,CC(=O)Nc1ccc2c(c1)Cc1cc(N3C(=O)C=CC3=O)ccc1-2,0.236
8,COc1ccc(/C=C(\C#N)c2c[nH]c3ccccc23)cc1,17.6
9,CC1=CC(=O)C(C(C)C)=C/C1=N/OC(=O)c1cccc([N+](=O)[O-])c1,1.05
10,O=[N+]([O-])c1ccc(N=Nc2ncc[nH]2)cc1,6.08
11,Cc1cc(F)ccc1S(=O)(=O)N(C(=O)c1ccncc1)c1ccc(OC(=O)c2ccncc2)cc1,2.42
12,CC(C)(C)C(=O)C(Cl)C(=O)Nc1ccccc1 (stereo unspecified),2.17
13,CCc1nc2ccccc2c(=O)n1NC(=O)c1c(O)c2ccccc2n(CC)c1=O,2.09
14,COc1cc(NC(=O)CSc2ccc(-c3ccccn3)nn2)cc(OC)c1,0.894
15,O=C(COC(=O)c1ccc([N+](=O)[O-])o1)NC1CCCc2ccccc21 (stereo unspecified),2.34

# Tested on: not listed separately
# Assay: as above
# Conditions: S. cerevisiae SKN7-toxicity growth rescue, plate reader; at 2.1 µM (top of the series)
row,Compound,growth rescue activity
1,C=C1C(=O)C23CCC4C(C)(C(=O)OC)CCCC4(C)C2CCC1(O)C3 (stereo unspecified),-9.52% (inactive)

# Same assay, conditions: S. cerevisiae SKN7-toxicity growth rescue, plate reader; at 6.8 µM (top of the series)
row,Compound,growth rescue activity
1,O=C(c1cc([N+](=O)[O-])cc([N+](=O)[O-])c1)N(Cc1nnc(-c2ccccc2Cl)o1)C1CC1,-38% (inactive)

# Same assay, conditions: S. cerevisiae SKN7-toxicity growth rescue, plate reader; at 19.5 µM (top of the series)
row,Compound,growth rescue activity
1,Cc1cc(O)ccc1N=Cc1c(C(F)(F)F)[nH][nH]c1=O,-11.8% (inactive)
2,CCCOc1ccc2ccccc2c1/C=C1\SC(=O)NC1=O,-39.3% (inactive)
3,S=C(Nc1ccc(Oc2ccccc2)cc1)NC1CCCCCC1,-9.53% (inactive)
4,N#Cc1ccc(Sc2ccccn2)c([N+](=O)[O-])c1,7.91% (inactive)
5,CCN(CC)S(=O)(=O)c1ccc(N=NC2=C(O)CC(C)(C)CC2=O)cc1,-10.4% (inactive)
6,N#Cc1cc2c(nc1SCc1ccccc1)CCCC2=O,-24.7% (inactive)
7,Cc1cccc(Oc2cnn(C(C)(C)C)c(=O)c2Cl)c1,1.29% (inactive)
8,O=C(CSc1nccn(-c2cccc(F)c2)c1=O)Nc1ccc(Cl)cc1F,26.9% (inactive)
9,O=C(Sc1cccc2cccnc12)c1ccccc1Br,-59.6% (inactive)
10,C[C@]12CC[C@H](O)CC1=CCC1C2CC[C@@]2(C)C1CC[C@@H]2NC(=O)[C@@H](N)Cc1ccccc1 (stereo partly specified),15.7% (inactive)
11,CN1CCN(C(c2ccccn2)c2cc(Cl)c3cccnc3c2O)CC1 (stereo unspecified),-64.1% (inactive)
12,CCOC(=O)c1cnc(-n2nc(C)cc2C)nc1NC1CCCC1,-62% (inactive)
13,O=[N+]([O-])c1ccc(Sc2ncccn2)c([N+](=O)[O-])c1,-6.92% (inactive)
14,CC(C)C(=O)NC(c1cccc([N+](=O)[O-])c1)c1ccc2cccnc2c1O (stereo unspecified),-62.7% (inactive)
15,CC1Oc2ccccc2C=C1/C=N/Nc1ccc(C(=O)O)cc1 (stereo unspecified),-32.7% (inactive)
16,O=S(=O)(c1c(Cl)sc(Cl)c1Br)N1CCCC1,-25% (inactive)
17,CCCCNc1c(-c2ccc(-c3ccc(OC)cc3)c(OC)c2)nc2ccccn12,-84.6% (inactive)
18,CCOC(=O)C1CCCN(C(=O)c2cc(-c3ccc(C)cc3)nc3ccccc23)C1 (stereo unspecified),25.9% (inactive)
19,O=C1C(Nc2ccccc2)=C/C(=N/S(=O)(=O)c2cccs2)c2ccccc21,-8.54% (inactive)
20,Fc1ccccc1COc1ccc(Br)cc1CNCc1ccncc1,-7.59% (inactive)
21,CCOC(=O)c1ccc(NC(=S)N(Cc2cccnc2)Cc2ccco2)cc1,-37.1% (inactive)
22,Cc1nc(SCc2ccc(OCCC(C)C)cc2)n[nH]1,-93.3% (inactive)
23,O=c1c2ccccc2nc(-c2cccc(Cl)c2)n1O,-66% (inactive)
24,c1ccc(CSc2ccc(-c3ccccn3)nn2)nc1,-28% (inactive)
25,O=C(O)CSc1nc(-c2ccc(Cl)cc2)nc2c1oc1ccccc12,-84.1% (inactive)
26,Cc1c(C2(O)CCCCC2)[nH]c2ccc(C(F)(F)F)cc12,-43.8% (inactive)
27,CCCCCCC(Cl)(Cn1ccnc1)c1ccccc1 (stereo unspecified),-69.6% (inactive)

row,Compound,growth rescue activity
1,O=C1N(c2ccc(Cl)cc2)C(c2cccnc2)N2CCCN12 (stereo unspecified),-65.4% (inactive)
2,O=C(O)/C(=C\c1ccc(F)cc1)c1ccc(-c2ccccc2)cc1,-66.8% (inactive)
3,O=C(NOC(=O)c1ccccc1)c1ccccc1,-77.5% (inactive)
4,O=C(Oc1c(Cl)cc(Cl)c2cccnc12)c1cccs1,-79.3% (inactive)
5,Cc1cccc(/C=N/NC(=O)C(C)Nc2cccc3ccccc23)n1 (stereo unspecified),-1.71% (inactive)
6,CCCCNC(=S)N/N=C1\CCCCc2ccccc21,-53.8% (inactive)
7,c1ccc(-c2ccc(SCc3cccnc3)nn2)nc1,-9.85% (inactive)
8,CC(=O)N(c1ccccc1)c1ccc([N+](=O)[O-])cc1[N+](=O)[O-],-25.3% (inactive)
9,COc1ccc(C2=CC(=O)C[C@H](c3ccc4c(c3)OCO4)C2)cc1,89.7% (inactive)
10,Oc1ccc(/C=N/Nc2ccc(C(F)(F)F)cn2)c(O)c1,-73.7% (inactive)
11,O=C1C(=O)c2ccccc2C(O)=C1CC=C(Cl)Cl,-94.4% (inactive)
12,CCC(Oc1ccc(Br)cc1Cl)C(=O)Nc1nnc(C2CC2)s1 (stereo unspecified),-50.3% (inactive)
13,O=C(NCc1ccncc1)c1ccccc1Nc1ccc(SC(F)F)cc1,-49.8% (inactive)
14,O=c1c(CO)cc(CO)cc(CO)c1O,-26.9% (inactive)
15,CCCC(=O)NC(c1ccc(N(C)C)cc1)c1ccc2cccnc2c1O (stereo unspecified),-7.33% (inactive)
16,CN1C(=S)SC(N(O)C(=O)Nc2cccc3ccccc23)C1(C)C (stereo unspecified),0.395% (inactive)
17,CN(C(=O)COC(=O)c1ccc([N+](=O)[O-])cc1Cl)C1CCCCC1,139% (inactive)
18,O=c1cc(CSc2ccc(Cl)cc2)nc(-c2ccccn2)[nH]1,-48.1% (inactive)
19,Cc1nc2ccc(NC(=O)Cc3ccc4c(c3)OCCO4)cc2s1,28.8% (inactive)
20,Nc1nc2sc3c(c2c(=O)s1)CCCC3,-93.9% (inactive)
21,S=C(NC1CCCC1)N1CCN(c2cccc(Cl)c2)CC1,13.6% (inactive)
22,Nc1ncnc(Sc2ccccc2)c1[N+](=O)[O-],21.4% (inactive)
23,Cc1cc(Cl)ccc1C(=O)C1CCCN(C(=O)c2cncs2)C1 (stereo unspecified),-54.3% (inactive)
24,Cc1cccc(N2CCN(C(=O)C3(S(=O)(=O)c4ccc(Cl)cc4)CC3)CC2)c1C,-38.2% (inactive)
25,Oc1c(Cl)c(Cl)c(Cl)c(Cl)c1Cl,-82.9% (inactive)
26,CC(=O)Oc1ccc(OC(C)=O)c(SCCCCCCl)c1,-46.3% (inactive)
27,O=C1Nc2c(Br)cccc2C1=O,-9.27% (inactive)

row,Compound,growth rescue activity
1,O=C(CN1CC[n+]2c(-c3cccs3)csc21)c1ccc(-c2ccccc2)cc1,-63.4% (inactive)
2,COc1cccc(Nc2nc(-c3cccs3)nc3ccccc23)c1,-45.7% (inactive)
3,CC[C@@H](C(=O)[C@@H](C)[C@@H](O)[C@H](C)[C@@H]1O[C@@H]([C@@H](CC)C(=O)O)CC[C@@H]1C)[C@H]1O[C@]2(C=C[C@@H](O)[C@]3(CC[C@@](C)([C@H]4CC[C@](O)(CC)[C@H](C)O4)O3)O2)[C@H](C)C[C@@H]1C,-61.6% (inactive)
4,Cc1ccc(S(=O)(=O)/N=C2/C=C(C3C(=O)CC(C)(C)CC3=O)C(=O)c3ccccc32)cc1,18.5% (inactive)
5,Cn1ccsc1=NC(=O)c1ccc([N+](=O)[O-])o1,-53.8% (inactive)
6,O=C(Nc1nc(-c2ccccc2)c(-c2ccccc2)o1)c1ccc(F)cc1,-15.6% (inactive)
7,COc1ccc(N/N=C(\C#N)C(N)=O)cc1,-58.5% (inactive)
8,CCOc1ccc(S(=O)(=O)Nc2cc(SCC(=O)O)c(O)c3ccccc23)cc1,21.7% (inactive)
9,CC(=O)c1c(O)ccc2c(-c3ccccc3)cc(=O)oc12,-69.1% (inactive)
10,O=Cc1ccc(O)c2ncccc12,-72% (inactive)
11,O=C(NC(=S)N(CCc1ccccc1)CCc1ccccc1)c1ccco1,-9.38% (inactive)
12,CCOc1ccc(-c2[nH]ncc2Oc2cccc(OC)c2)c(O)c1,-63.7% (inactive)
13,Cc1cccc(Nc2nc(-c3ccccn3)cs2)n1,-59.7% (inactive)
14,CCCCCCn1c(=O)c(C(=O)Nc2ncccc2C)c(O)c2ccccc21,-12.8% (inactive)
15,CC12CCC(O)CC1=CCC1C2CCC2(C)C3=NN=CC3CC12 (stereo unspecified),-53.7% (inactive)
16,CC12CC3(C)CC(C)(C1)CC(NC(=O)N1CCCC1)(C2)C3,-73.5% (inactive)
17,N#Cc1c(-c2ccc(Cl)cc2)n(O)c2ccccc12,-88.7% (inactive)
18,Cc1cc(OCc2cccc(S(=O)(=O)N3CCOCC3)c2)ccc1Cl,66.7% (inactive)
19,CN(C)CCCNC(=O)c1ccc(-c2nc(-c3ccc(Cl)cc3)cs2)cc1,0.817% (inactive)
20,COC(=O)COC(=O)c1ccccc1NC(=O)c1ccccc1,-40.9% (inactive)
21,Cc1ccc(-n2ncc(Br)c(Br)c2=O)cc1,23.6% (inactive)
22,O=C(O)c1c(NC(=O)N2CCCC2)sc2c1CCCC2,-88% (inactive)
23,Cc1nc2ccc(C(C(F)(F)F)(C(F)(F)F)C(F)(F)F)cc2[nH]1,-85.7% (inactive)
24,CCCn1nc(C(=O)N2CCN(S(=O)(=O)c3ccc(C)c(C)c3)CC2)c2ccccc2c1=O,-50.4% (inactive)
25,COc1ccc(N(C)S(=O)(=O)c2ccc(Cl)c(C(=O)NNC(=O)c3ccccc3O)c2)cc1,4.7% (inactive)
